Source: ChEMBL document CHEMBL1136625, “Substituted quinolines induce inhibition of proliferation of HTLV-1 infected cells” (2003)

species: Homo sapiens; test: Inhibitory activity against human T-lymphotropic virus type 1 (HTLV-1) infected HUT-102 cells at 50 uM; assay type: functional; conditions: not given

| Structure (SMILES) | inhibition at 50 µM [%] |
| --- | --- |
| CC(=O)Cc1ccc2ccccc2n1 | 0 |
| C(=C\c1ccc2ccccc2n1)/c1ccc2ccccc2n1 | 0 |
| O=[N+]([O-])/C=C/c1ccc2ccccc2n1 | 0 |

test system: Human T-cell leukemia virus type I; test: Inhibitory activity against human T-lymphotropic virus type 1 (HTLV-1) infected HUT-102 cells at 10 uM; assay type: functional; conditions: Primate T-lymphotropic virus 1, HuT-102

| Structure (SMILES) | inhibition at 10 µM [%] |
| --- | --- |
| OC(Cc1ccc2ccccc2n1)c1ccccc1 (centres undefined) | 16 |
| [O-][n+]1c(/C=C/c2ccccc2)ccc2ccccc21 | 86 |
| CC1OC1c1ccc2ccccc2n1 (centres undefined) | 0 |
| OC/C=C/c1ccc2ccccc2n1 | 0 |
| CCCCCCCCCCCC/C=C/c1ccc2ccccc2n1 | 6 |
| COc1ccc(C(O)Cc2ccc3ccccc3n2)cc1OC (centres undefined) | 0 |
| C=Cc1ccc2ccccc2n1 | 87 |
| COC(=O)/C=C/c1ccc2cc(C)ccc2n1 | 45 |
| c1ccc2nc(CCc3ccc4c(c3)OCO4)ccc2c1 | 50 |
| BrC(Br)=Cc1ccc2ccccc2n1 | 0 |
| CC/C=C/c1ccc2ccccc2n1 | 0 |
| c1ccc(-c2ccc3ccccc3n2)cc1 [2-PHENYLQUINOLINE] | 0 |
| CCC/C=C/c1ccc2ccccc2n1 | 46 |
| CCCCCc1ccc2ccccc2n1 | 0 |
| COc1ccc(/C=C/c2ccc3ccccc3n2)cc1OC | 0 |
| OC(c1ccc2ccccc2n1)C1CC1 (centres undefined) | 0 |
| CC(C)c1ccc2ccccc2n1 | 0 |
| C(=C\c1ccc2ccccc2n1)/c1ccccc1 | 0 |
| C(#Cc1cnc2ccccc2c1)CCC#Cc1cnc2ccccc2c1 | 82 |
| CCCCCCCCCCCCCCc1ccc2ccccc2n1 | 12 |
| CCCc1ccc2ccccc2n1 | 0 |
| c1ccc(C2OC2c2ccc3ccccc3n2)cc1 (centres undefined) | 0 |
| C[Si](C)(C)C#Cc1ccc2ccccc2n1 | 87 |
| CC(O)Cc1ccc2cccc(O)c2n1 (centres undefined) | 85 |
| O=C/C=C/c1ccc2ccccc2n1 | 34 |
| COC(=O)/C=C/c1ccc2ccccc2n1 | 4 |
